How the values were obtained:
ocular substrate [1] = assay: Subject's report on a gas permeable (hard) contact lens coated with 2–3 drops of the ophthalmic fluid; assay type: in vivo
Excerpt: (§1) In use, 2–3 drops of the ophthalmic fluid of the present invention are placed onto the inside surface of the contact lens. The ophthalmic fluid is then distributed to cover fully and evenly the inside surface of the contact lens by rubbing the ophthalmic fluid into the lens with a fingertip or any other suitable applicator. It is envisaged that the ophthalmic fluid will be biologically sterile. The inside of a contact lens was coated with 2–3 drops of the ophthalmic fluid of the present invention and fitted to the subject in the conventional manner. The subject reported on the perceived ease of inserting the coated lens, the subject's sensual reaction to the coated lens and the resulting vision through the coated lens, in relation to hard and soft contact lenses.

ocular substrate [2] = assay: Subject's report on a hydrogel (soft) contact lens coated with 2–3 drops of the ophthalmic fluid; assay type: in vivo
Excerpt: as §1, with “The ophthalmic fluid of the present invention is suitable for use with gas permeable (hard) contact lenses or hydrogel (soft) contact lenses. In” for “In”

SMILES: CCCCCC/C=C\CCCCCCCC(=O)OCC(COC(=O)CCCCCCC/C=C\CCCCCC)OC(=O)CCCCCCC/C=C\CCCCCC [tripalmitolein, 1,2,3-tri(cis-9-hexadecenoyl)glycerol]
- sensation/discomfort caused by the edges of the lens on the eye (ocular substrate [1]): not reduced to the same extent
- subject's sensual reaction to the coated lens (comfort/irritation) (ocular substrate [1]): could not feel the presence of the coated lens
- vision through the coated lens (ocular substrate [1]): excessively blurred
- vision through the coated lens (ocular substrate [2]): blurred
- comfort once the coated lens was inserted (ocular substrate [2]): comfortable

SMILES: CCCCC/C=C\C/C=C\C/C=C\C/C=C\CCCC(=O)OCC(COC(=O)CCC/C=C\C/C=C\C/C=C\C/C=C\CCCCC)OC(=O)CCC/C=C\C/C=C\C/C=C\C/C=C\CCCCC [triarachidonin, 1,2,3-tri(cis, cis, cis, cis, −5,8,11,14-eicosatetraenoyl)glycerol]
- subject's sensual reaction to the coated lens (comfort/irritation) (ocular substrate [1]): comfortable to wear
- tear production/expulsion and maceration (ocular substrate [1]): did not experience tear production or maceration
- vision through the coated lens (ocular substrate [1]): excessively and persistently blurred
- sensation upon insertion / amelioration of the normal discomfort when inserting a soft lens (ocular substrate [2]): did not produce any noticeable improvement in the wearer's comfort
- tear production/expulsion and maceration (ocular substrate [2]): increased tear production upon insertion of the soft lens, but no maceration
- vision through the coated lens (ocular substrate [2]): clear vision

SMILES: CCCCC/C=C\C/C=C\CCCCCCCC(=O)OCC(COC(=O)CCCCCCC/C=C\C/C=C\CCCCC)OC(=O)CCCCCCC/C=C\C/C=C\CCCCC [trilinolein, 1,2,3-tri(cis, cis-9,12octadecadienoyl)glycerol]
- sensation/discomfort caused by the edges of the lens on the eye (ocular substrate [1]): not reduced to the same extent
- subject's sensual reaction to the coated lens (comfort/irritation) (ocular substrate [1]): could not feel the presence of the coated lens
- tear production/expulsion and maceration (ocular substrate [1]): no tear expulsion
- time after which initially blurred vision cleared (ocular substrate [1]): approximately 60 seconds
- vision through the coated lens (ocular substrate [1]): initially experienced blurred vision
- sensation upon insertion / amelioration of the normal discomfort when inserting a soft lens (ocular substrate [2]): noticeable amelioration of the normal discomfort
- tear production/expulsion and maceration (ocular substrate [2]): no tear expulsion
- vision through the coated lens (ocular substrate [2]): immediately clear
- comfort once the coated lens was inserted (ocular substrate [2]): could not feel the presence of the coated lens

SMILES: CC/C=C\C/C=C\C/C=C\CCCCCCCC(=O)OCC(COC(=O)CCCCCCC/C=C\C/C=C\C/C=C\CC)OC(=O)CCCCCCC/C=C\C/C=C\C/C=C\CC [trilinolenin, 1,2,3-tri(cis, cis, cis −9,12,15-octadecatrienoyl)glycerol]
- subject's sensual reaction to the coated lens (comfort/irritation) (ocular substrate [1]): extreme irritation
- tear production/expulsion and maceration (ocular substrate [1]): increased tear production and maceration of the ocular substrate
- vision through the coated lens (ocular substrate [1]): blurred
- time after which initially blurred vision cleared (ocular substrate [2]): 2 min
- vision through the coated lens (ocular substrate [2]): initially experienced blurred vision
- comfort once the coated lens was inserted (ocular substrate [2]): comfortable to wear
